From the supplement of paper PMC10307832

Tests used:
Experiment in all cases: relative viability (nuclei count vs DMSO), 5 days (fraction); higher = more cells survive
Trametinib + Phenformin = compound: CC(=O)Nc1cccc(-n2c(=O)n(C3CC3)c(=O)c3c(Nc4ccc(I)cc4F)n(C)c(=O)c(C)c32)c1 [Trametinib] + N=C(N)NC(=N)NCCc1ccccc1 [Phenformin] (partner 250 µM)
Method in brief: (§1)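 Lung cancer cell lines in 1536-well plates got either a single drug or a fixed anchor-drug dose together with five library-drug doses (not always all listed) in √10 steps, by pin tool, on the day after seeding. Nuclei were counted after 5 days, and relative viability is the treated-to-vehicle ratio of nuclei counts. Values are medians of duplicate plates.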

[1] = compound: CN1C=C(C2=CC=CC=C21)/C=C\3/C4=C(C=CC=N4)NC3=O + Nc1ncn([C@H]2C[C@H](O)[C@@H](CO)O2)c(=O)n1 [Decitabine] (partner 2 µM)
Method in brief: as §1

[2] = compound: CN1C=C(C2=CC=CC=C21)/C=C\3/C4=C(C=CC=N4)NC3=O + CCNC(=O)c1noc(-c2cc(C(C)C)c(O)cc2O)c1-c1ccc(CN2CCOCC2)cc1 [Luminespib] (partner 0.01 µM)
Method in brief: as §1

[3] = compound: CN1C=C(C2=CC=CC=C21)/C=C\3/C4=C(C=CC=N4)NC3=O + O=C(c1cc(Cc2n[nH]c(=O)c3ccccc23)ccc1F)N1CCN(C(=O)C2CC2)CC1 [Olaparib] (partner 8 µM)
Method in brief: as §1

SK-LU-1
relative viability (Trametinib + Phenformin; first compound 0.0025 µM): 0.482
relative viability (Trametinib + Phenformin; first compound 0.007906 µM): 0.501
relative viability (Trametinib + Phenformin; first compound 0.025 µM): 0.288
relative viability (Trametinib + Phenformin; first compound 0.07906 µM): 0.246
relative viability (Trametinib + Phenformin; first compound 0.25 µM): 0.164
relative viability ([1]; first compound 0.02 µM): 0.484
relative viability ([1]; first compound 0.06325 µM): 0.499
relative viability ([1]; first compound 0.2 µM): 0.578
relative viability ([1]; first compound 0.6325 µM): 0.617
relative viability ([1]; first compound 2 µM): 0.6
relative viability ([2]; first compound 0.02 µM): 0.201
relative viability ([2]; first compound 0.06325 µM): 0.185
relative viability ([2]; first compound 0.2 µM): 0.191
relative viability ([2]; first compound 0.6325 µM): 0.184
relative viability ([2]; first compound 2 µM): 0.2
relative viability ([3]; first compound 0.02 µM): 0.424
relative viability ([3]; first compound 0.06325 µM): 0.43
relative viability ([3]; first compound 0.2 µM): 0.406
relative viability ([3]; first compound 0.6325 µM): 0.444
relative viability ([3]; first compound 2 µM): 0.602

SK-MES-1
relative viability (Trametinib + Phenformin; first compound 0.0025 µM): 0.64
relative viability (Trametinib + Phenformin; first compound 0.007906 µM): 0.64
relative viability (Trametinib + Phenformin; first compound 0.025 µM): 0.481
relative viability (Trametinib + Phenformin; first compound 0.07906 µM): 0.43
relative viability (Trametinib + Phenformin; first compound 0.25 µM): 0.287
relative viability ([1]; first compound 0.02 µM): 0.37
relative viability ([1]; first compound 0.06325 µM): 0.336
relative viability ([1]; first compound 0.2 µM): 0.369
relative viability ([1]; first compound 0.6325 µM): 0.38
relative viability ([1]; first compound 2 µM): 0.369
relative viability ([2]; first compound 0.02 µM): 0.777
relative viability ([2]; first compound 0.06325 µM): 0.557
relative viability ([2]; first compound 0.2 µM): 0.62
relative viability ([2]; first compound 0.6325 µM): 0.684
relative viability ([2]; first compound 2 µM): 0.699
relative viability ([3]; first compound 0.02 µM): 0.638
relative viability ([3]; first compound 0.06325 µM): 0.516
relative viability ([3]; first compound 0.2 µM): 0.592
relative viability ([3]; first compound 0.6325 µM): 0.544
relative viability ([3]; first compound 2 µM): 0.505

SW 900
relative viability (Trametinib + Phenformin; first compound 0.0025 µM): 0.579
relative viability (Trametinib + Phenformin; first compound 0.007906 µM): 0.532
relative viability (Trametinib + Phenformin; first compound 0.025 µM): 0.457
relative viability (Trametinib + Phenformin; first compound 0.07906 µM): 0.487
relative viability (Trametinib + Phenformin; first compound 0.25 µM): 0.143
relative viability ([1]; first compound 0.02 µM): 0.366
relative viability ([1]; first compound 0.6325 µM): 0.433
relative viability ([1]; first compound 2 µM): 0.483
relative viability ([2]; first compound 0.02 µM): 0.191
relative viability ([2]; first compound 0.06325 µM): 0.186
relative viability ([2]; first compound 0.6325 µM): 0.165
relative viability ([2]; first compound 2 µM): 0.176
relative viability ([3]; first compound 0.02 µM): 0.463
relative viability ([3]; first compound 0.6325 µM): 0.768
relative viability ([3]; first compound 2 µM): 0.655

SW 1573
relative viability (Trametinib + Phenformin; first compound 0.0025 µM): 0.29
relative viability (Trametinib + Phenformin; first compound 0.007906 µM): 0.279
relative viability (Trametinib + Phenformin; first compound 0.025 µM): 0.255
relative viability (Trametinib + Phenformin; first compound 0.07906 µM): 0.156
relative viability (Trametinib + Phenformin; first compound 0.25 µM): 0.15
relative viability ([1]; first compound 0.02 µM): 0.477
relative viability ([1]; first compound 0.06325 µM): 0.498
relative viability ([1]; first compound 0.2 µM): 0.514
relative viability ([1]; first compound 0.6325 µM): 0.542
relative viability ([1]; first compound 2 µM): 0.458
relative viability ([2]; first compound 0.02 µM): 0.235
relative viability ([2]; first compound 0.06325 µM): 0.279
relative viability ([2]; first compound 0.2 µM): 0.327
relative viability ([2]; first compound 0.6325 µM): 0.181
relative viability ([2]; first compound 2 µM): 0.243
relative viability ([3]; first compound 0.02 µM): 0.5
relative viability ([3]; first compound 0.06325 µM): 0.425
relative viability ([3]; first compound 0.2 µM): 0.434
relative viability ([3]; first compound 0.6325 µM): 0.453
relative viability ([3]; first compound 2 µM): 0.529
